Tested on: BW5 T-cells
Test: Activation of TetCAR-expressing BW5 T-cells challenged with SupT1 cells expressing CD33, with increasing tetracycline
Assay type: cell-based
Details: TetCAR (anti-CD33) BW5 T-cells challenged with SupT1 cells expressing CD33
Description: A bicistronic construct was expressed in BW5 T cells as a single transcript which self-cleaves at the 2A site to yield a signalling component which comprises TiP fused via a flexible linker to the endodomain of CD3-Zeta; and a receptor component which comprises a CD33 recognizing scFv, a spacer derived from the Fc domain of IgG1, a CD4 derived transmembrane and intracellular domain; and TetR (FIG. 6a). A control was also expressed which was identical except that TiP was absent from the signalling component (FIG. 6b).
The BW5 T-cells were challenged with wild-type SupT1 cells or SupT1 cells engineered to express CD33 in the absence of tetracycline or in the presence of increasing concentrations of tetracycline.
Control TetCAR which lacks the TiP domain was also transduced into BW5. Once again, these T-cells were challenged with wild-type SupT1 cells or SupT1 cells engineered to express CD33 in the absence or in the presence of increasing concentration of Tetracycline.

## CN(C)[C@@H]1C(O)=C(C(N)=O)C(=O)[C@@]2(O)C(O)=C3C(=O)c4c(O)cccc4[C@@](C)(O)[C@H]3C[C@@H]12 [tetracycline, reference compound]
  concentration of tetracycline at which activation is fully inhibited: 100 nM
